BindingDB's records for PubMed 9152366 (University of California San Francisco, 1997)
Several values for one entry are separate records, joined by “and”; a condition that tells them apart may be missing. Equal entries are not always repeated. Bridge positions count the residues as written; N and C are the ends. Square brackets hold non-standard residues; d marks the D form. Peptide text beside a SMILES is read from it. Nle = CCCC[C@H](N)C(=O)O

Tests used:
VIP peptides = target: T1, VIP peptides (Homo sapiens, UniProt P01282)
T1 sequence (P01282 whole entry): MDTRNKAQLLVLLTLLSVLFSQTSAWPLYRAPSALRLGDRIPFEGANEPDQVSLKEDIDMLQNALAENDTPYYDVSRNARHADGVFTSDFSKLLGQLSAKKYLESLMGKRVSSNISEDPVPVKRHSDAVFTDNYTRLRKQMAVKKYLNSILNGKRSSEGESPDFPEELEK

[1] = target: T2, Vasoactive intestinal polypeptide receptor 2 (Homo sapiens, UniProt P41587)
T2 sequence (P41587 whole entry): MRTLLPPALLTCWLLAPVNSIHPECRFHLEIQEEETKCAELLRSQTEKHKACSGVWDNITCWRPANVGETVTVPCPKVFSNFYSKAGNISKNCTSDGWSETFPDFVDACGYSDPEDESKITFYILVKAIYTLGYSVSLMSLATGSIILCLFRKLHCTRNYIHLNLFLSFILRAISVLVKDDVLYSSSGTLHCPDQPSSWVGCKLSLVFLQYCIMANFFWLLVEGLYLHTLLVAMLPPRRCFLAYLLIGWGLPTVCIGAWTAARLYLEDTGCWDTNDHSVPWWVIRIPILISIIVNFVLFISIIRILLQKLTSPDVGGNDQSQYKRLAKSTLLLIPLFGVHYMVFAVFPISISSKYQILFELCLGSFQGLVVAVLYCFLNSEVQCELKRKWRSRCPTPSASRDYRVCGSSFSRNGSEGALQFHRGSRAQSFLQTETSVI

- Ki (VIP peptides): 3.4 nM
- Ki [1]: 16 nM and 9.6 nM
SMILES: CCCC[C@H](NC(=O)[C@H](CCC(N)=O)NC(=O)[C@H](CCCCN)NC(=O)[C@H](CCCNC(=N)N)NC(=O)[C@H](CC(C)C)NC(=O)[C@H](CCCCN)NC(=O)[C@@H](NC(=O)[C@H](Cc1ccc(OC)cc1)NC(=O)[C@H](CC(N)=O)NC(=O)[C@H](CCC(=O)O)NC(=O)[C@@H](NC(=O)[C@H](Cc1ccccc1)NC(=O)[C@@H](NC(=O)[C@H](C)NC(=O)[C@H](CC(=O)O)NC(=O)[C@H](CO)NC(=O)[C@H](Cc1c[nH]cn1)NC(C)=O)C(C)C)[C@@H](C)O)[C@@H](C)O)C(=O)N[C@@H](C)C(=O)N[C@@H](C)C(=O)N[C@@H](CCCCN)C(=O)N[C@H]1CCCCNC(=O)C[C@@H](C(=O)N[C@@H](CC(C)C)C(=O)N[C@@H](CCCCN)C(=O)N[C@@H](CCCCN)C(N)=O)NC(=O)[C@H](CC(N)=O)NC(=O)[C@H](CC(C)C)NC(=O)[C@H](Cc2ccc(O)cc2)NC1=O [CAS_150828-75-4] (Ac-HSDAVFTENY(Me)TKLRKQ[Nle]AAKKYLNDLKK-NH2; lactam 21-25)
